Some results are limits rather than exact numbers.

The test system of data set [1] is KLK3 mRNA in LNCaP/AR cells. Description: Gene expression analysis (qRT-PCR) in LNCaP/AR cells. The class given is cell-based. The note with it: 10 μM; for agonist activity (KLK3 mRNA): androgen-depleted conditions. The method, then:
(§1) LNCaP/AR and LREX′ cells were cultured for 72 hours after plating in phenol-red free RPMI 1640 (10% CT-FBS) in six well plates at 40,000 and 50,000 cells/mL, respectively. LNCaP/AR cells were treated with 10 μM ARE-1, bicalutamide (bic), or enzalutamide (enz, Aurum Pharmatech) for an additional 48, 2, and 2 hours, respectively, prior to treatment with 1 nM DHT or ethanol for 16 hours. LREX′ cells were treated with 10 μM ARE-1 for 16 hours prior to induction with 1 nM DHT or 100 nM dexamethasone (dex) for 8 hours. RNA extraction (RNEasy columns, Qiagen), cDNA generation (Transcriptor First Strand cDNA kit, Roche), and qRT-PCR (SYBR Green Master Mix, Applied Biosystems, ABI7300 instrument) were as described (10-12). Expression was normalized to β-glucuronidase.
A general note: Real-time PCR tracks product formation cycle by cycle.

Data set [2] relates to KLK3 and HOMER2 expression in LREX′ cells. Description: Gene expression analysis (qRT-PCR) of genes co-regulated by AR and GR in LREX′ cells. Type of data set: cell-based. As to the method:
as §1

Data set [3] deals with VCaP xenografts. The note with it: 10 mg/kg enzalutamide treatment; cited from earlier work.
The subject of data set [4] is LREX′ cells. Description: RNAseq GSEA (Hallmark pathways) in LREX′ cells. Type of data set: cell-based, human. The method, then:
(§2) LREX′ cells were plated at 50,000 cells/mL in 10 cm^2 dishes, treated with or without 10 μM of ARE-1 in fresh media, incubated 16 hours, and induced with 1 nM DHT for 8 hours. Tumor samples were homogenized mechanically. Total RNA was triazol extracted, sequenced (Illumina HiSeq2000), mapped against the human genome (hg19) with Tophat2 using Ensembl GRCh37 gene annotations. Human and mouse reads from tumor samples were parsed with BBSplit and unique reads were mapped. Htseq-count was used for exon alignment and DESeq2 for differential expression. Gene set enrichment analysis (GSEA) was performed on genes with padj<0.05 and fold change≥1.6 for cell samples and padj<0.05 for tumor samples.

A further data set has as its system VCaP cells. In words: Cytotoxicity and long-term viability (cell counting) in VCaP cells. The class given is cell-based. An excerpt: (§3) The LREX′ and LNCaP/AR cell lines were gifts from Charles Sawyers (Memorial Sloan Kettering) and received in 2014 and 2007, respectively. The VCaP cell line was a gift from Kenneth Pienta (University of Michigan Medical School) and received in 2012. Cells were maintained as previously described (5, 10-13), and were used within 10 passages from thawing. Cells were validated to parental cell lines by STR profile at IDEXXX Bioresearch following experimentation and confirmed to be Mycoplasma free. WST-1 assay (Roche) was used to measure cytotoxicity. The CellTiter-Glo assay was also used in some experiments and is described when used. Long-term toxicity in VCaP cells was assayed by cell counting.

The nature of data set [5]: Circulation study of ARE-1 in C57BL6/J mice. Type of data set: in vivo. As to the method:
(§4) Animal experiments were performed at Caltech under IACUC approval. VCaP and LREX′ cells were engrafted as 1:1 mixtures of 3×10^6 cells in Matrigel (BD Biosciences) into flanks of intact and castrated male SCID mice (Charles River), respectively. LREX′ engrafted mice received 10 mg/kg enz (oral gavage) daily. Once tumors were 100 mm^3 (0.5*l*w*w), ARE-1 was administered subcutaneously to opposing flanks in 20% DMSO:saline. For circulation studies, four C57BL6/J animals were injected subcutaneously with ARE-1 at 30 mg/kg and blood collected retroorbitally. Plasma concentrations of ARE-1 were analyzed by HPLC, area under the curve (AUC) approximated by the linear trapezoidal method, as described (12).
(§5) Cell culture experiments represent ≥3 independent biological replicates. Sequencing analyses were duplicates for cell culture and quadruplicates for tumor samples. For xenografts, animals were randomly assigned to groups. For circulation experiments, concentrations of ARE-1 were duplicate measurements. Measurements in cell culture, animal, and immunohistochemistry experiments were assessed by Student's t-test.

The test system of data set [6] is nascent RNA in LREX′ cells. Description: Nascent RNA measurement (5-EU incorporation) in LREX′ cells. Type of data set: cell-based. The method, then: LREX′ cells were plated at 100,000 cells/mL in 96 well plates in RPMI 1640 (20% FBS and 1 μM enz), adhered for 24 hours, dosed with ARE-1, incubated for 48 hours. The Click-iT® RNA Alexa Fluor® 488 HCS kit was used for dye conjugation and incorporation of 5-ethynyl uridine (5-EU) was measured on a Flexstation 3 plate reader.
LREX′ cells were plated at 100,000 cells/mL in 175 cm^2 flasks, adhered 24 hours, incubated with 10 μM ARE-1 24, 48, and 72 hours, then with 300 μM 5-EU in fresh media. Cells were detached by Accumax or Accutase, and Alexa Fluor® 488 azide dye was conjugated. Cells were passed through 35 μm mesh prior to flow, sorted on a FACSCalibur instrument (Beckman-Dickinson), analyzed using FlowJo.

For data set [7], the system named is VCaP xenografts. Description: VCaP xenografts in intact male SCID mice. Type of data set: in vivo. As to the method:
as §4

Data set [8] has as its system LREX′ cells. Description: Cytotoxicity / proliferation in LREX′ cells (WST-1). The note with it: with or without 1 nM DHT, 100 nM dex, or both. Type of data set: cell-based.
Text: as §3
For orientation: Tetrazolium assays rely on reduction of a dye to a coloured formazan, in cell work by metabolically active cells.

In a further data set the test system is LNCaP cells. Description: RNAseq GSEA (Hallmark pathways) in LNCaP cells. The note with it: LNCaP ARE-1/NT. The class given is cell-based, human.
A further data set relates to LREX′ tumors. Description: RNAseq GSEA of LREX′ tumor expression profiles. The class given is in vivo, mice. The note with it: gene ontology. As to the method: as §2, §4
The subject of the next data set is LNCaP/AR cells. In words: Cytotoxicity / proliferation in LNCaP/AR cells (WST-1, CellTiter-Glo). The note with it: 72 hours, compared with bicalutamide. The class given is cell-based.
Text: as §3

Data set [9] relates to hormone sensitive LNCaP xenografts. To be noted: previously shown, cited from earlier work.
Data set [10] can be described thus: Plasma concentration of ARE-1 in LREX′ tumor bearing SCID mice. The class given is in vivo. To be noted: 2.5 mg/kg, terminal blood samples, linear trapezoidal method. The method, then:
as §4, §5

Regarding `CNC(=O)c1ccc(N2C(=S)N(c3ccc(C#N)c(C(F)(F)F)c3)C(=O)C2(C)C)cc1F` [enzalutamide, reference compound], the “agonist activity (KLK3 mRNA)” value in [1] is listed as “no agonist activity”. In addition, the “reduction of DHT induced transcription” value in data set [2] (1 nM DHT, enzalutamide compared with ARE-1) is reported as “more potent than ARE-1 in reducing DHT induced transcription”. In the data set on VCaP xenografts [3], the “response of VCaP xenografts” value is “modest response”.
Take `C[C@]12CCC(=O)C[C@@H]1CC[C@@H]1[C@@H]2CC[C@]2(C)[C@@H](O)CC[C@@H]12` [DHT, dihydrotestosterone, reference compound]: in the data set on LREX′ cells [4] (LREX′ DHT/NT), the “NES HALLMARK ANDROGEN RESPONSE” value is listed as 5.031, the “NES HALLMARK MYC TARGETS V1” value was −1.861, the “NES HALLMARK MYC TARGETS V2” value is −1.81 and the “NES HALLMARK OXIDATIVE PHOSPHORYLATION” value is on record as −2.126. In addition, in the data set on LREX′ cells [4] (LREX′ DHT/NT), the “NES HALLMARK PROTEIN SECRETION” value turned out to be 2.849, the “NES HALLMARK TNFA SIGNALING VIA NFKB” value is reported as 2.751 and the “NES HALLMARK UV RESPONSE DOWN” value was 2.496.
Consider `CC(=O)N[C@H](CCNC(=O)c1cc(NC(=O)c2cc(NC(=O)c3cc(NC(=O)c4nccn4C)cn3C)cn2C)cn1C)C(=O)Nc1cn(C)c(C(=O)Nc2cc(C(=O)Nc3cc(C(=O)Nc4cc(C(=O)NCCCN(C)CCCNC(=O)c5cccc(C(=O)O)c5)n(C)c4)n(C)c3)n(C)c2)n1` [ARE-1], for which the “long-term cell viability in VCaP cells” value with VCaP cells (long-term incubation, cell counting, compared with enzalutamide) was “more potent than enzalutamide and insensitive to GR activation”. Also, the “proliferation of VCaP cells” value with VCaP cells (with or without 1 nM DHT, 100 nM dex, or both) is on record as “reduced proliferation”. In data set [5] (30 mg/kg subcutaneously, C57BL6/J mice, linear trapezoidal method), the “AUC (plasma)” value is 189.9 µg·h/mL. For the same molecule, in data set [5] (30 mg/kg, mice), the “time to recovery from weight loss” value is not above 5 days, the “visible signs of distress” value is listed as “without visible signs of distress” and the weight loss came out at 6%. In data set [1], the “agonist activity (KLK3 mRNA)” value is reported as “no agonist activity”. Further, the “baseline expression of KLK3” value in [1] (charcoal stripped media) is listed as “reduced baseline expression of KLK3”. In data set [6], the “nascent RNA (5-EU incorporation)” value is “reduced nascent RNA in LREX′ cells”. Moreover, the “toxicity (animal weights)” value with VCaP xenografts [7] (VCaP tumor bearing animals treated with ARE-1) is recorded as “without significant toxicity”. Moreover, in the data set on VCaP xenografts [7] (VCaP xenografts, 5 mg/kg ARE-1 subcutaneously three times per week), the “reduction of tumor growth compared to vehicle” value is reported as 70%. Moreover, the “proliferation of LREX′ cells” value in the data set on LREX′ cells [8] was “reduced proliferation”. Also, in the data set on LNCaP cells, the “NES HALLMARK APOPTOSIS” value was 2.323, the “NES HALLMARK INTERFERON GAMMA RESPONSE” value was determined as 3.06, the “NES HALLMARK P53 PATHWAY” value is on record as 3.749 and the “NES HALLMARK TNFA SIGNALING VIA NFKB” value was determined as 3.248. For the same molecule, in the data set on LREX′ tumors, the “Nes ADENYL NUCLEOTIDE BINDING” value is −4.22, the “Nes CELL PROJECTION ORGANIZATION” value was −3.813, the “Nes CELLULAR AMIDE METABOLIC PROCESS” value turned out to be 4.725 and the “Nes CHROMATIN BINDING” value is on record as −3.786. Also, in the data set with LREX′ tumors, the “Nes DOUBLE STRANDED DNA BINDING” value is recorded as −4.074, the “Nes MACROMOLECULAR COMPLEX BINDING” value is recorded as −3.726, the “Nes MITOCHONDRIAL ENVELOPE” value came out at 5.17 and the “Nes MITOCHONDRIAL PART” value stood at 5.946. In the data set with LREX′ tumors, the “Nes MITOCHONDRION” value was determined as 6.585, the “Nes MITOCHONDRION ORGANIZATION” value is 4.686, the “Nes NUCLEIC ACID BINDING TRANSCRIPTION FACTOR ACTIVITY” value is recorded as −5.598 and the “Nes ORGANELLE INNER MEMBRANE” value was found to be 4.922. Further, in the data set on LREX′ tumors, the “Nes ORGANONITROGEN COMPOUND BIOSYNTHETIC PROCESS” value stood at 4.815, the “Nes ORGANONITROGEN COMPOUND METABOLIC PROCESS” value was 5.958, the “Nes REGULATION OF TRANSCRIPTION FROM RNA POLYMERASE II PROMOTER” value is recorded as −4.438 and the “Nes REGULATORY REGION NUCLEIC ACID BINDING” value is on record as −4.775. Further, in the data set on LREX′ tumors, the “Nes RIBOSOME” value stood at 4.779, the “Nes SEQUENCE SPECIFIC DNA BINDING” value is on record as −4.99, the “Nes STRUCTURAL CONSTITUENT OF RIBOSOME” value came out at 4.741 and the “Nes ZINC ION BINDING” value was −3.923. Also, the “reduction of dex induced transcription” value in data set [2] (100 nM dex, ARE-1 compared with enzalutamide) is on record as “the opposite was observed with dex induction”. For the same molecule, the “KLK3 and HOMER2 expression” value in [2] (10 μM ARE-1) is “represses KLK3 and HOMER2 expression”. Moreover, in the data set with LREX′ cells [4] (LREX′ DHT + ARE-1/DHT), the “NES HALLMARK APICAL JUNCTION” value is listed as −2.198, the “NES HALLMARK DNA REPAIR” value is given as 2.055, the “NES HALLMARK INTERFERON GAMMA RESPONSE” value is 2.028 and the “NES HALLMARK MITOTIC SPINDLE” value is on record as −2.302. In addition, in the data set on LREX′ cells [4] (LREX′ DHT + ARE-1/DHT), the “NES HALLMARK MYC TARGETS V1” value amounted to 2.006, the “NES HALLMARK OXIDATIVE PHOSPHORYLATION” value is listed as 2.738, the “NES HALLMARK PROTEIN SECRETION” value was −2.402 and the “NES HALLMARK UV RESPONSE UP” value is listed as 2.173. The “proliferation of LNCaP/AR cells” value in the data set on LNCaP/AR cells is on record as “reduced proliferation of LNCaP/AR cells more than bicalutamide”. Moreover, the host toxicity entry in data set [9] (LNCaP xenografts) is listed as “minimal host toxicity”. Further, the “efficacy against LNCaP xenografts” value in data set [9] is “effective against hormone sensitive LNCaP xenografts”. Also, in [10], the “AUC (plasma)” value turned out to be 25.9 µg·h/mL.

(Values after US10307401B2, “Compositions and methods for treatment of prostate cancer” (priority 2016, dated 2019).)
